The values that follow come from patent US11326992B2 (priority 2016, dated 2022).

The structures appear in SMILES notation.

Data set [1] can be described thus: Short term on-card stability. The note with it: day 28, stored in the presence of air (RT+Air and −20° C.+Air).
For data set [2] the following is noted: morphine value marked (base); cited from earlier work.
Data set [3] is described as follows: Blood:Plasma binding ratio of guanfacine test sample. Particulars: whole blood sample; read-out: Blood:Plasma binding ratio (Ke/p). It is filed as in vitro ADME. As for the experimental part:
The multilayer device of the invention was tested using a known hypertension and ADHD drug, guanfacine, with its [^13C, ^15N3] internal standard, Guanfacine (C9H9Cl2N3O) has a monoisotopic mass of 245.0123 Da, while the internal standard [^13C, ^15N3]-guanfacine (^13CC8H9Cl2^15N3O) has a monoisotopic mass of 249.0067 Da. These compounds were tested using a whole blood sample with a Blood:Plasma binding ratio (Ke/p) of 1.5 and analyzed using LC-MS/MS bioanalysis following the protocol described here.

[4] abbreviates: High QC 900 ng/mL, ANOVA p<0.0001.

With `COc1ccc2c3c1O[C@H]1C(=O)CC[C@@]4(O)[C@@H](C2)N(C)CC[C@]314` [Oxycodone], the on-card stability result in data set [1] (setting [4]) was “significant decompositions”; in data set [1] (LLOQ 5 ng/mL, ANOVA), “significant decomposition”.

For the compound `CNC(C)Cc1ccc2c(c1)OCO2` (centres unmarked) [MDMA, 3,4-methylenedioxymethamphetamine], in data set [2], the pKa was 9.9.

As to `CNC(C)C(=O)c1ccc(C)cc1` (centres unmarked) [Mephedrone], the pKa in data set [2] is reported as 9.0. Further, the on-card stability result is “significant decompositions” in data set [1] (setting [4]) and “significant decomposition” in data set [1] (LLOQ 5 ng/mL, ANOVA).

In the case of `CNC(C)Cc1ccccc1` (centres unmarked) [Methamphetamine], in data set [2], the pKa is 9.9.

For `N=C(N)NC(=O)Cc1c(Cl)cccc1Cl` [guanfacine], the blood plasma ratio in data set [3] came to 1.5.

Regarding `CC(C)(N)Cc1ccccc1` [Phentermine], in data set [2], the pKa is 10.1.

Turning to `COc1ccc2c3c1O[C@H]1C(=O)CC[C@H]4[C@@H](C2)N(C)CC[C@]314` [Hydrocodone], the on-card stability result in data set [1] (setting [4]) is given as “significant decompositions”; in data set [1] (LLOQ 5 ng/mL, ANOVA), “significant decomposition”.
